Tested on: soluble epoxide hydrolase (sEH)
Experiment: Fluorescent assay for soluble epoxide hydrolase (CMNPC substrate), percent inhibition at the recited concentration
Format: biochemical
Source text: Fluorescent Assay for Mouse and Human Soluble Epoxide Hydrolase Recombinant mouse sEH (MsEH) and human sEH (HsEH) were produced in a baculovirus expression system as previously reported. Grant et al., J. Biol. Chem., 268:17628-17633 (1993); Beetham et al., Arch. Biochem. Biophys., 305:197-201 (1993). The expressed proteins were purified from cell lysate by affinity chromatography. Wixtrom et al., Anal. Biochem., 169:71-80 (1988). Protein concentration was quantified using the Pierce BCA assay using bovine serum albumin as the calibrating standard. The preparations were at least 97% pure as judged by SDS-PAGE and scanning densitometry. They contained no detectable esterase or glutathione transferase activity which can interfere with the assay. The assay was also evaluated with similar results in crude cell lysates or homogenate of tissues. The IC50s for each inhibitor were determined according to the following procedure: […] Jones P. D. et al.; Analytical Biochemistry 2005; 343: pp. 66-75) Bis/Tris HCl 25 mM pH 7.0 containing 0.1 mg/mL of BSA (buffer […] at 0.25 mM in DMSO. Mother solution of enzyme in buffer A (Mouse sEH at 6 μg/mL and Human sEH at 5 μg/mL). Inhibitor dissolved in DMSO at the appropriate concentration. In a black 96 well plate, fill all the wells with 150 μL of buffer A. Add 2 μL of DMSO in well A2 and A3, and then add 2 μL of inhibitor solution in A1 and A4 through A12. Add 150 μL of buffer A in row A, then mix several time and transfer 150 μL to row B. Repeat this operation up to row H. The 150 μL removed from row H is discarded. Add 20 μL of buffer A in column 1 and 2, then add 20 μL of enzyme solution to column 3 to 12. Incubate the plate for 5 minutes in the plate reader at 30° C. During incubation prepare the working solution of substrate by mixing 3.68 mL of buffer A (4×0.920 mL) with 266 μL (2×133 μL) of substrate solution). At t=0, add 30 μL of working substrate solution with multi-channel pipette labeled “Briggs 303” and start the reading ([S]final: 5 μM). Read with ex: 330 nm (20 nm) and em: 465 nm (20 nm) every 30 second for 10 minutes. The velocities are used to analyze and calculate the IC50s. Tables 1-7 above provide the percent inhibition of the enzyme when tested at the concentration recited therein.

Structure (SMILES) | % inh. (Inhibition Conc. 2000 nM) | % inh. (Inhibition Conc. 50 nM) | also measured
O=C(NC1CCN(c2ccccc2)CC1)NC12CC3CC(CC(C3)C1)C2 [Compound 2-3, 1-(1-adamantyl)-3-(1-phenylpiperidin-4-yl)urea] |  | 98% | 
O=C(Nc1ccc(C(F)(F)F)cc1)NC1CCN(c2nccs2)CC1 [Compound 2-8, 1-(1-(thiazol-2-yl)piperidin-4-yl)-3-(4-(trifluoromethyl)phenyl)urea] |  |  | % inh. (Inhibition Conc. 200 nM): 98%
NS(=O)(=O)c1ccc(C(=O)N2CCC(NC(=O)Nc3ccc(C(F)(F)F)cc3)CC2)cc1 [Compound 4-1, 4-(4-(3-(4-(trifluoromethyl)phenyl)ureido)piperidine-1-carbonyl)benzene-sulfonamide] |  | 90% | 
CC(=O)N1CCC(NC(=O)NC2CCC(C(C)(C)C)CC2)CC1 (stereo not shown) [Compound 7-3, 1-(1-acetylpiperidin-4-yl)-3-(4-tert-butylcyclohexyl)urea] |  |  | % inh. (Inhibition Conc. 500 nM): 86%
CC(=O)N1CCC(NC(=O)NC23CC4CC(CC(O)(C4)C2)C3)CC1 [Compound 3-2, 1-(1-acetylpiperidin-4-yl)-3-(3-hydroxyadamant-1-yl)urea] |  |  | % inh. (Inhibition Conc. 5000 nM): 67%
O=C(NC1CCN(S(=O)(=O)c2ccc(C(F)(F)F)cc2)CC1)NC12CC3CC(CC(C3)C1)C2 [Compound 7-36, 1-adamantyl-3-(1-(4-(trifluoromethyl)phenylsulfonyl)piperidin-4-yl)urea] |  | 99% | 
Cc1ccccc1S(=O)(=O)N1CCC(NC(=O)NC23CC4CC(CC(C4)C2)C3)CC1 [Compound 7-33, 1-adamantyl-3-(1-(o-tolylsulfonyl)piperidin-4-yl)urea] |  | 99% | 
O=C(NC1CCCCC1)NC1CCN(S(=O)(=O)c2ccc(Cl)cc2)CC1 [Compound 7-42, 1-(1-(4-chlorophenylsulfonyl)piperidin-4-yl)-3-cyclohexylurea] |  | 95% | 
CCC1CCC(NC(=O)NC2CCN(C(C)=O)CC2)CC1 (stereo not shown) [Compound 7-4, 1-(1-acetylpiperidin-4-yl)-3-(4-ethylcyclohexyl)urea] |  | 72% | 
CC(=O)N1CCC(NC(=O)NC23CC4CC(CC(F)(C4)C2)C3)CC1 [Compound 3-4, 1-(1-acetylpiperidin-4-yl)-3-(3-fluoroadamant-1-yl)urea] |  |  | % inh. (Inhibition Conc. 500 nM): 82%
CC(=O)N1CCC(NC(=O)NC23CC4CC(C2)C(=O)C(C4)C3)CC1 [Compound 3-9, 1-(1-acetylpiperidin-4-yl)-3-(4-oxoadamantyl)urea] |  |  | % inh. (Inhibition Conc. 200 nM): 42%
CC(=O)N1CCC(NC(=O)NC2CCC2)CC1 [Compound 7-63, 1-(1-acetylpiperidin-4-yl)-3-cyclobutylurea] | 76% |  | 
CC(C)(C)OC(=O)N1CCC(NC(=O)Nc2ccc(C(=O)O)cc2)CC1 [Compound 7-54, 4-(3-(1-(tert-butoxycarbonyl)piperidin-4-yl)ureido)benzoic acid] | 55% |  | 

The next lines start with results.

% inh. (Inhibition Conc. 2000 nM) | % inh. (Inhibition Conc. 50 nM) | Structure (SMILES) | also measured
69% |  | COC(=O)c1ccc(NC(=O)NC2CCN(C(C)=O)CC2)cc1 [Compound 7-69, methyl 4-(3-(1-acetylpiperidin-4-yl)ureido)benzoate] | 
 | 92% | CC(C)(C)OC(=O)N1CCC(NC(=O)Nc2ccc3c(c2)CCC3)CC1 [Compound 6-5, tert-butyl 4-(3-(2,3-dihydro-1H-inden-5-yl)ureido)-piperidine-1-carboxylate] | 
0% |  | CC(=O)N1CCC(NC(=O)Nc2ccc(N3CCOCC3)cc2)CC1 [Compound 7-87, 1-(1-acetylpiperidin-4-yl)-3-(4-morpholinophenyl)urea] | 
87% |  | CC(=O)N1CCC(NC(=O)Nc2ccc3c(c2)OCCO3)CC1 [Compound 6-19, 1-(1-acetylpiperidin-4-yl)-3-(2,3-dihydrobenzo[b][1,4]dioxin-6-yl)urea] | 
95% |  | CN(C)c1ccc(NC(=O)NC2CCN(C(=O)OC(C)(C)C)CC2)cc1 [Compound 7-65, tert-butyl 4-(3-(4-(dimethylamino)phenyl)ureido)piperidine-1-carboxylate] | 
 | 80% | CCCOc1ccc(NC(=O)NC2CCN(C(=O)OC(C)(C)C)CC2)cc1 [Compound 7-10, tert-butyl 4-(3-(4-propoxyphenyl)ureido)-piperidine-1-carboxylate] | 

Source: US20080227780A1, “SOLUBLE EPOXIDE HYDROLASE INHIBITORS” (Arete Therapeutics, Inc., priority 2007, published 2008)
